Measured values as given in PubChem BioAssay (NCI).
“And” between values parts separate entries of the source, which are not always exact repeats. Equal values may be shown once.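 Interpolation was linear, between the two tested concentrations surrounding the appropriate level; five concentrations were tested over 48 hours in 96-well plates. At the GI50, growth is halved. At the TGI there is no net growth.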

Legend:
Assay in all cases: DTP human tumour cell line panel, 48 h
[1] = system: HCC-2998 colon
[2] = system: HL-60(TB) leukemia
[3] = system: HT29 colon
[4] = system: MALME-3M melanoma
[5] = system: MDA-MB-231 breast
[6] = system: MOLT-4 leukemia
[7] = system: OVCAR-4 ovarian
[8] = system: RPMI-8226 leukemia
[9] = system: SF-539 CNS
[10] = system: SR leukemia

SMILES: CC(C)(C)NCCC(O)c1cc(C(F)(F)F)nc2c(C(F)(F)F)cccc12 (stereo unspecified)
- TGI [1]: 8.73 µM
- TGI [2]: 27.5 µM
- TGI [3]: 20.1 µM
- TGI [4]: 27.2 µM
- TGI [5]: 22.8 µM
- TGI [6]: 18.6 µM
- TGI [7]: 27.1 µM
- TGI [8]: 17.1 µM
- TGI [9]: 31 µM
- TGI [10]: 13.5 µM

SMILES: CC(C)n1nc(C#Cc2cccc(NC(=O)c3cccc(C(F)(F)F)c3)c2)c2c(N)ncnc21
- GI50 [1]: 2.36 µM
- TGI [1]: 75.7 µM
- GI50 [2]: 0.156 µM
- TGI [2]: > 100 µM
- GI50 [3]: 0.485 µM
- TGI [3]: > 100 µM
- GI50 [4]: 0.203 µM
- TGI [4]: 4.41 µM
- GI50 [5]: 0.256 µM
- TGI [5]: 2.07 µM
- GI50 [6]: 1.36 µM
- TGI [6]: 61.3 µM
- GI50 [7]: 3.54 µM
- TGI [7]: 34.4 µM
- GI50 [8]: 2.26 µM
- TGI [8]: 16.7 µM
- GI50 [9]: 0.445 µM
- TGI [9]: 2.33 µM
- GI50 [10]: 3.67 µM
- TGI [10]: > 100 µM

SMILES: O=C(NO)C(O)C(O)C(O)C(O)CO (stereo unspecified)
- GI50 [1]: > 100 µM
- TGI [1]: > 100 µM
- GI50 [2]: > 21.5 µM
- TGI [2]: > 21.5 µM
- GI50 [3]: > 100 µM and 38.1 µM
- TGI [3]: > 100 µM
- GI50 [4]: > 100 µM
- TGI [4]: > 100 µM
- GI50 [5]: > 100 µM and 58.8 µM
- TGI [5]: > 100 µM
- GI50 [6]: > 100 µM
- TGI [6]: > 100 µM
- GI50 [7]: > 100 µM
- TGI [7]: > 100 µM
- GI50 [8]: > 100 µM
- TGI [8]: > 100 µM
- GI50 [9]: > 100 µM
- TGI [9]: > 100 µM
- GI50 [10]: 75.9 µM
- TGI [10]: > 100 µM

SMILES: COc1cc(C(=O)N/N=C/c2cccc([N+](=O)[O-])c2)cc(OC)c1OC
- GI50 [1]: 7.95 µM
- TGI [1]: 59.5 µM
- GI50 [2]: 0.762 µM
- TGI [2]: 10.2 µM
- GI50 [3]: 2.89 µM
- TGI [3]: 8.1 µM
- GI50 [4]: 2.75 µM
- TGI [4]: 9.86 µM
- GI50 [5]: 26.1 µM
- TGI [5]: > 100 µM
- GI50 [6]: 3.98 µM
- TGI [6]: > 100 µM
- GI50 [7]: 43.4 µM
- TGI [7]: > 100 µM
- GI50 [8]: 5.39 µM
- TGI [8]: > 100 µM
- GI50 [9]: 3.28 µM
- TGI [9]: 16.9 µM
- GI50 [10]: 0.558 µM
- TGI [10]: > 100 µM

SMILES: CC[C@@]1(OC(=O)CN(C)C)C(=O)OCc2c1cc1n(c2=O)Cc2cc3ccccc3nc2-1
- GI50 [1]: 0.322 µM
- TGI [1]: 1.32 µM and 1.76 µM
- GI50 [2]: 0.0282 µM
- TGI [2]: 0.389 µM and 0.179 µM
- GI50 [3]: 0.156 µM
- GI50 [4]: 0.293 µM
- TGI [4]: 4.96 µM and 4.89 µM
- GI50 [5]: 1.44 µM
- TGI [5]: > 100 µM
- TGI [6]: 0.318 µM and 0.344 µM
- GI50 [7]: 0.205 µM
- TGI [7]: 5.61 µM and 0.733 µM
- GI50 [8]: 0.00464 µM
- GI50 [9]: < 0.0167 µM
- TGI [9]: 0.0572 µM and 0.315 µM
- GI50 [10]: 0.00209 µM
- TGI [10]: 0.114 µM and < 0.0427 µM

SMILES: CCN(CC)CCOc1ccc(C2=C(c3ccccc3)CCc3cc(OC)ccc32)cc1
- GI50 [1]: 1.39 µM
- TGI [1]: 2.81 µM
- GI50 [2]: 8.99 µM
- TGI [2]: 26 µM
- GI50 [3]: 0.445 µM
- TGI [3]: 1.87 µM
- GI50 [4]: 1.69 µM
- TGI [4]: 3.41 µM
- GI50 [5]: 2.26 µM
- TGI [5]: 7.44 µM
- GI50 [6]: 4.64 µM
- TGI [6]: 21.3 µM
- GI50 [7]: 3.54 µM
- TGI [7]: 17.2 µM
- GI50 [8]: 2.62 µM
- TGI [8]: 11.3 µM
- GI50 [9]: 1.52 µM
- TGI [9]: 2.89 µM
- GI50 [10]: 0.518 µM

SMILES: C[C@H](NC(=O)CCC(F)(F)F)C(=O)N[C@@H]1C(=O)N(CCO)c2ncccc2-c2ccccc21
- GI50 [1]: > 100 µM
- TGI [1]: > 100 µM
- GI50 [2]: > 100 µM
- TGI [2]: > 100 µM
- GI50 [3]: > 100 µM
- TGI [3]: > 100 µM
- GI50 [4]: > 100 µM
- TGI [4]: > 100 µM
- GI50 [5]: > 100 µM
- TGI [5]: > 100 µM
- GI50 [6]: > 100 µM
- TGI [6]: > 100 µM
- GI50 [7]: > 100 µM
- TGI [7]: > 100 µM
- GI50 [8]: > 100 µM
- TGI [8]: > 100 µM
- GI50 [9]: > 100 µM
- TGI [9]: > 100 µM
- GI50 [10]: > 100 µM
- TGI [10]: > 100 µM

SMILES: Cc1ccc(OCCCCCCNCCO)c(C)c1
- GI50 [1]: 14.7 µM
- TGI [1]: 30.2 µM
- GI50 [2]: 0.323 µM
- TGI [2]: 1.45 µM
- GI50 [3]: 11.3 µM
- TGI [3]: 25.6 µM
- GI50 [4]: 17 µM
- TGI [4]: 35.3 µM
- GI50 [5]: 9.11 µM
- TGI [5]: 25.5 µM
- GI50 [6]: 16.3 µM
- TGI [6]: 36.8 µM
- GI50 [7]: 13.6 µM
- TGI [7]: 28.8 µM
- GI50 [8]: 15.5 µM
- TGI [8]: 37.9 µM
- GI50 [9]: 14.7 µM
- TGI [9]: 28.6 µM
- GI50 [10]: 14.1 µM
- TGI [10]: 35.5 µM

SMILES: C#Cc1cccc(Nc2ncnc3ccc(-c4cncc(NS(C)(=O)=O)c4)cc23)c1
- GI50 [1]: 2.67 µM
- TGI [1]: 11.8 µM
- GI50 [2]: 1.87 µM
- TGI [2]: 6.83 µM
- GI50 [3]: 1.86 µM
- TGI [3]: 6.28 µM
- GI50 [4]: 1.11 µM
- TGI [4]: 9.13 µM
- GI50 [5]: 2.2 µM
- TGI [5]: 8.06 µM
- GI50 [6]: 1.41 µM
- TGI [6]: 4.45 µM
- GI50 [7]: 3.59 µM
- TGI [7]: 75.9 µM
- GI50 [8]: 2.18 µM
- TGI [8]: 4.93 µM
- GI50 [9]: 1.46 µM
- TGI [9]: 4.96 µM
- GI50 [10]: 1.37 µM
- TGI [10]: 5.74 µM

SMILES: CCOC(=O)C1=C(c2ccccc2)N(Cc2ccccc2)C2(O)C=CC(=O)C3C(=O)N(c4ccccc4)C(=O)C132 (stereo unspecified)
- GI50 [1]: 1.77 µM
- TGI [1]: 3.26 µM
- GI50 [2]: 1.8 µM
- TGI [2]: 4.58 µM
- GI50 [3]: 1.93 µM
- TGI [3]: 4.83 µM
- GI50 [4]: 1.79 µM
- TGI [4]: 3.34 µM
- GI50 [5]: 2.2 µM
- TGI [5]: 4.98 µM
- GI50 [6]: 1.89 µM
- TGI [6]: 5.01 µM
- GI50 [7]: 2.94 µM
- TGI [7]: 10.8 µM
- GI50 [8]: 1.27 µM
- TGI [8]: 4.35 µM
- GI50 [9]: 1.91 µM
- TGI [9]: 3.76 µM
- GI50 [10]: 1.17 µM
- TGI [10]: 4.13 µM

SMILES: O=C(CN=Cc1cccs1)CSC(c1ccccc1)c1ccccc1
- GI50 [1]: 29.3 µM
- TGI [1]: 93.3 µM
- GI50 [2]: 18.9 µM
- TGI [2]: 41.9 µM
- GI50 [3]: 27.7 µM
- TGI [3]: 99.2 µM
- GI50 [4]: 19.6 µM
- TGI [4]: 49.4 µM
- GI50 [5]: 24.5 µM
- TGI [5]: 95.6 µM
- GI50 [6]: 18.5 µM
- TGI [6]: 69.1 µM
- GI50 [7]: 26.5 µM
- TGI [7]: > 100 µM
- GI50 [8]: 12.1 µM
- TGI [8]: 28.7 µM
- GI50 [9]: 26.6 µM
- TGI [9]: 71.1 µM
- GI50 [10]: 17.1 µM
- TGI [10]: 54.1 µM
